{
  "source": "patent US20170296521A1",
  "about": "“PHARMACEUTICAL COMPOSITION FOR SUPPRESSION OF THROMBOEMBOLISM AFTER STENT PLACEMENT” (priority 2014, published 2017)",
  "system": "thrombus formation on stents in arteriovenous shunts",
  "test": "rat stent thrombosis model (AV shunt with stents), amount of protein in thrombus",
  "type": "in vivo",
  "conditions": "for dose responsiveness of the antithrombotic effect: Example 1, Spearman's correlation coefficient test, P<0.001; for suppression of thrombus formation (rate of inhibition of amount of protein in thrombus): Example 1, FIG. 1A",
  "description": "Each rat was anesthetized with thiopental sodium (100 mg/mL/kg, i.p.) and placed on a warming mat. 18 minutes after the start of the anesthesia, polyethylene tubes (approximately 34 cm) containing four stents were inserted into the right and left carotid arteries and jugular veins to produce arteriovenous shunts (hereinafter, referred to as “AV shunts”). Blood flow was started in the shunts. 30 minutes after the start of the blood flow, the stents with thrombus attached thereto were taken out, and the amount of protein in the thrombus was measured.\nA 0.5% MC solution (10 mL/kg or 15 mL/kg) was orally administered to a control group. […] The collected thrombus-attached stents were stored at −20° C. until protein quantification. […] Then, the anti-FXa activity in the plasma was measured.\nAspirin (5 mg/15 ml/kg) or clopidogrel (3 mg/10 ml/kg) was orally administered to each rat fasted overnight. […] A 0.5% MC solution (10 mL/kg or 15 mL/kg) was orally administered to a control group.\nAmount of protein in thrombus: The thrombus-attached stents were placed in 0.9 mL of a 0.1 N NaOH solution containing 2% Na2CO3 and boiled for approximately 30 minutes to solubilize protein.",
  "note": "Where a name gives a salt, the structure may show the parent alone.",
  "data": [
    {"molecule": "CC(=O)Oc1ccccc1C(=O)O", "note": "[aspirin]", "values": [
      {"measurement": "rate of suppression of thrombus formation", "setting": "Example 1, FIG. 2A, 5 mg/kg orally two hours before AV shunting", "result": 40, "unit": "%"},
      {"measurement": "rate of suppression of thrombus formation", "setting": "Example 1, FIG. 2A, 10 mg/kg orally two hours before AV shunting", "result": 47, "unit": "%"},
      {"measurement": "significance of the suppression of thrombus formation vs control", "setting": "Example 1, FIG. 2A, 5 and 10 mg/kg orally, Dunnett's test", "result": "no significant effect"},
      {"measurement": "suppression of thrombus formation", "setting": "Example 1, FIG. 2B, 10 mg/kg orally two hours before AV shunting", "result": 63, "unit": "%"},
      {"measurement": "suppression of thrombus formation", "setting": "Example 1, FIG. 2B, 25 mg/kg orally two hours before AV shunting", "result": 64, "unit": "%"},
      {"measurement": "suppression of thrombus formation", "setting": "Example 1, FIG. 2B, 50 mg/kg orally two hours before AV shunting", "result": 70, "unit": "%"},
      {"measurement": "suppression of thrombus formation", "setting": "Example 1, FIG. 2B, 100 mg/kg orally two hours before AV shunting", "result": 83, "unit": "%"},
      {"measurement": "dose responsiveness of the antithrombotic effect", "result": "dose-dependent"},
      {"measurement": "rate of suppression of thrombus formation", "setting": "Example 2, FIG. 5A, aspirin 5 mg/kg orally alone", "result": 42, "unit": "%"}
    ]},
    {"molecule": "COC(=O)[C@H](c1ccccc1Cl)N1CCc2sccc2C1", "note": "[clopidogrel, clopidogrel sulfate]", "values": [
      {"measurement": "suppression of thrombus formation", "setting": "Example 1, FIG. 3, 1 mg/kg orally two hours before AV shunting", "result": 40, "unit": "%"},
      {"measurement": "suppression of thrombus formation", "setting": "Example 1, FIG. 3, 3 mg/kg orally two hours before AV shunting", "result": 47, "unit": "%"},
      {"measurement": "suppression of thrombus formation", "setting": "Example 1, FIG. 3, 10 mg/kg orally two hours before AV shunting", "result": 84, "unit": "%"},
      {"measurement": "suppression of thrombus formation", "setting": "Example 1, FIG. 3, 30 mg/kg orally two hours before AV shunting", "result": 94, "unit": "%"},
      {"measurement": "dose responsiveness of the antithrombotic effect", "result": "dose-dependent"},
      {"measurement": "rate of suppression of thrombus formation", "setting": "Example 2, FIG. 6A, clopidogrel 3 mg/kg orally alone", "result": 21, "unit": "%"}
    ]},
    {"molecule": "CN1CCc2nc(C(=O)N[C@@H]3C[C@@H](C(=O)N(C)C)CC[C@@H]3NC(=O)C(=O)Nc3ccc(Cl)cn3)sc2C1.Cc1ccc(S(=O)(=O)O)cc1", "note": "[edoxaban, N-(5-chloropyridin-2-yl)-N′-[(1S,2R,4S)-4-(dimethylcarbamoyl)-2-(5-methyl-4,5,6,7-tetrahydro[1,3]thiazolo[5,4-c]pyridine-2-carboxamido)cyclohexyl]oxamide]", "values": [
      {"measurement": "suppression of thrombus formation (rate of inhibition of amount of protein in thrombus)", "setting": "0.3 mg/kg orally 30 minutes before AV shunting", "result": 37, "unit": "%"},
      {"measurement": "suppression of thrombus formation (rate of inhibition of amount of protein in thrombus)", "setting": "1 mg/kg orally 30 minutes before AV shunting", "result": 70, "unit": "%"},
      {"measurement": "suppression of thrombus formation (rate of inhibition of amount of protein in thrombus)", "setting": "3 mg/kg orally 30 minutes before AV shunting", "result": 86, "unit": "%"},
      {"measurement": "dose responsiveness of the antithrombotic effect", "result": "dose-dependent"},
      {"measurement": "rate of suppression of thrombus formation", "setting": "Example 2, FIG. 5A, edoxaban 0.5 mg/kg orally alone", "result": 42, "unit": "%"},
      {"measurement": "rate of suppression of thrombus formation", "setting": "Example 2, FIG. 6A, edoxaban 0.5 mg/kg orally alone", "result": 25, "unit": "%"}
    ]},
    {"molecule": "ticagrelor sulfate", "values": [
      {"measurement": "suppression of thrombus formation", "setting": "Example 1, FIG. 4, 0.3 mg/kg orally two hours before AV shunting", "result": 67, "unit": "%"},
      {"measurement": "suppression of thrombus formation", "setting": "Example 1, FIG. 4, 1 mg/kg orally two hours before AV shunting", "result": 74, "unit": "%"},
      {"measurement": "suppression of thrombus formation", "setting": "Example 1, FIG. 4, 3 mg/kg orally two hours before AV shunting", "result": 89, "unit": "%"},
      {"measurement": "dose responsiveness of the antithrombotic effect", "result": "dose-dependent"}
    ]}
  ]
}
